Tests used:
[1] = system: K562; test: cells; conditions: Homo sapiens, K562, 72 h
[2] = system: MV4-11; test: Growth inhibition of human MV4-11 cells after 72 hrs by calcein AM dye-based fluorescence assay; type: functional; conditions: MV4-11, 72 h
[3] = molecular target: Receptor-type tyrosine-protein kinase FLT3 (Homo sapiens, UniProt P36888, ITD); test: biochemical; type: cell-based, Sf9
Description: Inhibition of N-terminal GST/His6-fused recombinant human FLT3 (R571 to S993 residues) ITD mutant expressed in Sf9 insect cells using poly (Ala,Glu,Lys,Tyr) 6:2:5:1 hydrobromide as substrate in presence of [gamma-33P]ATP

[4] = molecular target: Receptor-type tyrosine-protein kinase FLT3 (Homo sapiens, UniProt P36888, D835Y); test: biochemical; type: cell-based, Sf9
Description: Inhibition of N-terminal GST/His6-fused recombinant human FLT3 (R571 to S993 residues) D835Y mutant expressed in Sf9 insect cells using poly (Ala,Glu,Lys,Tyr) 6:2:5:1 hydrobromide as substrate in presence of [gamma-33P]ATP

[5] = system: MOLM-13; test: cells; conditions: Homo sapiens, MOLM-13, 72 h
[6] = system: U-937; test: cells; conditions: Homo sapiens, U-937, 72 h
[7] = in vitro; conditions: human, BJ cells
[8] = system: Kasumi 1; test: cells; conditions: Homo sapiens, Kasumi 1, 72 h
[9] = system: HCC827; test: cells; conditions: Homo sapiens, HCC827, 72 h
[10] = in vitro; conditions: human, MRC5 cells
[11] = system: MCF7; test: cells; conditions: Homo sapiens, MCF7, 72 h
[12] = in vitro; conditions: human, HUVEC
[13] = system: THP-1; test: cells; conditions: Homo sapiens, THP-1, 72 h

Row | SMILES | GI50 [1] | GI50 [2] | IC50 [3] | IC50 [4] | GI50 [5] | GI50 [6] | GI50 at 72 h [7] | GI50 [8] | GI50 [9] | GI50 at 72 h [10] | GI50 [11] | GI50 at 72 h [12] | GI50 [13]
1 | CC(O)CNc1nc(Nc2ccc(Br)cc2)c2ncn(C3CCCC3)c2n1 (configuration not stated) | > 25 µM | 0.444 µM | 0.628 µM | – | – | – | – | – | – | – | – | – | –
2 | CN1CCN(c2nc(Nc3ccc(Br)cc3)c3ncn(Cc4ccccc4)c3n2)CC1 | 3.8 µM | > 4 µM | > 20 µM | – | – | – | – | – | – | – | – | – | –
3 | Brc1ccc(Nc2nc(N3CCOCC3)nc3c2ncn3Cc2ccccc2)cc1 | > 12.5 µM | > 4 µM | > 20 µM | – | – | – | – | – | – | – | – | – | –
4 | N[C@H]1CC[C@H](Nc2nc(Nc3ccc(N4CCOCC4)nc3)c3ncn(C4CCCC4)c3n2)CC1 | 1.3 µM | 0.004 µM | 0.004 µM | – | – | – | – | – | – | – | – | – | –
5 | NCCCCCCNc1nc(Nc2ccc(CN3CCOCC3)cc2)c2ncn(C3CCCC3)c2n1 | 3.79 µM | 0.086 µM | 0.01 µM | 0.069 µM | 0.054 µM | 2.92 µM | 7.27 µM | 1.02 µM | 2.25 µM | 4.09 µM | 5 µM | 10.3 µM | 3.59 µM
6 | NCCCCCNc1nc(Nc2ccc(CN3CCOCC3)cc2)c2ncn(C3CCCC3)c2n1 | 1.53 µM | 0.035 µM | 0.005 µM | 0.065 µM | 0.02 µM | 3.63 µM | 11.2 µM | 1.28 µM | 1.12 µM | 5.88 µM | 2.12 µM | 14.2 µM | 2.42 µM
7 | c1cc(Nc2nc(N3CCOCC3)nc3c2ncn3C2CCCC2)ccc1CN1CCOCC1 | 4.47 µM | 0.061 µM | 0.019 µM | – | – | – | – | – | – | – | – | – | –
8 | NCCCCNc1nc(Nc2ccc(CN3CCOCC3)cc2)c2ncn(C3CCCC3)c2n1 | 2.1 µM | 0.011 µM | 0.001 µM | 0.005 µM | 0.019 µM | 1.34 µM | 10.4 µM | 2.24 µM | 1.66 µM | 3.88 µM | 2.1 µM | 6.27 µM | 3.74 µM
9 | CC(O)CNc1nc(Nc2ccc(Br)cc2)c2ncn(C(C)C)c2n1 (configuration not stated) | 17.8 µM | 1.5 µM | 0.591 µM | – | – | – | – | – | – | – | – | – | –
10 | CC(O)CNc1nc(Nc2ccc(Br)cc2)c2ncn(C3CCCCO3)c2n1 (configuration not stated) | 27.9 µM | 2.43 µM | 1.14 µM | – | – | – | – | – | – | – | – | – | –
11 | N[C@H]1CC[C@H](Nc2nc(Nc3ccc(Br)cc3)c3ncn(Cc4ccccc4)c3n2)CC1 | 3.07 µM | 2.29 µM | 0.798 µM | – | – | – | – | – | – | – | – | – | –
12 | c1cc(Nc2nc(N3CCCCC3)nc3c2ncn3C2CCCC2)ccc1CN1CCOCC1 | 11 µM | 0.701 µM | 0.05 µM | – | – | – | – | – | – | – | – | – | –
13 | CC(C)n1cnc2c(Nc3ccc(Br)cc3)nc(N[C@H]3CC[C@H](N)CC3)nc21 | 1.17 µM | 0.007 µM | 0.01 µM | – | – | – | – | – | – | – | – | – | –
14 | COc1ccc(CNc2nc(Nc3ccc(CN4CCOCC4)cc3)c3ncn(C4CCCC4)c3n2)cc1 | 6.69 µM | 0.892 µM | 0.209 µM | – | – | – | – | – | – | – | – | – | –
15 | NCCCCNc1nc(Nc2ccc(N3CCOCC3)cc2)c2ncn(C3CCCC3)c2n1 | 3.49 µM | 0.011 µM | 0.004 µM | 0.007 µM | 0.017 µM | 4.07 µM | 13 µM | 2.02 µM | 1.41 µM | 7.56 µM | 3.25 µM | 8.06 µM | 6.91 µM
16 | N[C@H]1CC[C@H](Nc2nc(Nc3ccc(N4CCN(Cc5ccccc5)CC4)cc3)c3ncn(C4CCCC4)c3n2)CC1 | 0.7 µM | 0.017 µM | 0.006 µM | – | – | – | – | – | – | – | – | – | –
17 | CCN1CCN(c2ccc(Nc3nc(NCCCCN)nc4c3ncn4C3CCCC3)cc2)CC1 | 1.33 µM | 0.012 µM | 0.001 µM | 0.003 µM | 0.004 µM | 3.42 µM | 15.4 µM | 2.07 µM | 0.976 µM | 10.3 µM | 2.15 µM | 11.4 µM | 4.36 µM
18 | OCCCNc1nc(Nc2ccc(CN3CCOCC3)cc2)c2ncn(C3CCCC3)c2n1 | 2.35 µM | 0.157 µM | 0.047 µM | – | – | – | – | – | – | – | – | – | –
19 | OCCNc1nc(Nc2ccc(CN3CCOCC3)cc2)c2ncn(C3CCCC3)c2n1 | 2 µM | 0.11 µM | 0.029 µM | – | – | – | – | – | – | – | – | – | –
20 | OCCCCNc1nc(Nc2ccc(CN3CCOCC3)cc2)c2ncn(C3CCCC3)c2n1 | 1.45 µM | 0.083 µM | 0.018 µM | – | – | – | – | – | – | – | – | – | –
21 | CN1CCN(c2nc(Nc3ccc(Br)cc3)c3ncn(C4CCCCO4)c3n2)CC1 (configuration not stated) | 7.13 µM | 3.2 µM | 4.21 µM | – | – | – | – | – | – | – | – | – | –
22 | Brc1ccc(Nc2nc(N3CCOCC3)nc3c2ncn3C2CCCCO2)cc1 (configuration not stated) | 3.75 µM | 3.88 µM | 1.2 µM | – | – | – | – | – | – | – | – | – | –
23 | c1cc(N2CCOCC2)ncc1Nc1nc(N2CCOCC2)nc2c1ncn2C1CCCC1 | > 25 µM | 0.07 µM | 0.071 µM | – | – | – | – | – | – | – | – | – | –
24 | CC(O)CNc1nc(Nc2ccc(Br)cc2)c2ncn(Cc3ccccc3)c2n1 (configuration not stated) | 9.45 µM | > 4 µM | 9.85 µM | – | – | – | – | – | – | – | – | – | –
25 | CC(O)CNc1nc(Nc2ccc(Cl)cc2)c2ncn(C3CCCC3)c2n1 (configuration not stated) | 10.9 µM | 0.235 µM | 1.72 µM | – | – | – | – | – | – | – | – | – | –
26 | C[C@@H](CO)CNc1nc(Nc2ccc(Br)cc2)c2ncn(C3CCCC3)c2n1 | 7.63 µM | 1.31 µM | 0.281 µM | – | – | – | – | – | – | – | – | – | –
27 | N[C@H]1CC[C@H](Nc2nc(Nc3ccc(Br)cc3)c3ncn(C4CCCCO4)c3n2)CC1 (some centres not stated) | 5.17 µM | 0.181 µM | 0.07 µM | – | – | – | – | – | – | – | – | – | –
28 | CN1CCN(c2nc(Nc3ccc(CN4CCOCC4)cc3)c3ncn(C4CCCC4)c3n2)CC1 | 2.75 µM | 0.066 µM | 0.053 µM | – | – | – | – | – | – | – | – | – | –
29 | N[C@H]1CC[C@H](Nc2nc(Nc3ccc(Cl)cc3)c3ncn(C4CCCC4)c3n2)CC1 | 0.84 µM | 0.021 µM | 0.005 µM | – | – | – | – | – | – | – | – | – | –

Reference: ChEMBL document CHEMBL4177767, “Discovery of N2-(4-Amino-cyclohexyl)-9-cyclopentyl- N6-(4-morpholin-4-ylmethyl-phenyl)- 9H-purine-2,6-diamine as a Potent FLT3 Kinase Inhibitor for Acute Myeloid Leukemia with FLT3 Mutations” (J Med Chem, 2018)
